Laboratory results published in paper PMC8760490, “Discovery of novel furanylbenzamide inhibitors that target oncogenic tyrosine phosphatase SHP2 in leukemia cells” (The Journal of Biological Chemistry, 2021).

Columns and labels:
[1] = tested on: MDA-MB-468 TNBC cells; assay: TNBC cell viability (CellTiter-Glo), MDA-MB-468; format: cell-based; details: Homo sapiens, MDA-MB-468; 72 h per text; 5 days per legend and method
Protocol: Inhibition of SHP2 has been reported to inhibit the growth of cancer cells including Kasumi-1 acute myeloid leukemia (AML) and KYSE-520 esophageal cancer cells ([30]). […] Thus, we treated two TNBC cell lines, BT-549 and MDA-MB-468, with SBI-4668 or the SHP2 allosteric inhibitor SHP099 at various concentrations and determined cell viability after 72 h, compared with the vehicle control (Fig. 4C). […] Next, we performed an 11-day colony formation assay with TNBC cells treated with SBI-4668 or SHP099 at 5, 10, or 20 μM (Fig. 4D).
Triple-negative breast cancer cell viability was assessed using the ATP-depletion assay CellTiter-Glo. Briefly, 2500 cells in 25 μl media (RPMI + 10% FBS + 1× penicillin–streptomycin [Omega Scientific]) were seeded per well of a 384-well tissue culture–treated plate (Greiner). About 25 nl of 1000× test compound were added using a Labcyte Echo acoustic dispenser, and the cells were incubated for 5 days before addition of 10 μl of CellTiter-Glo reagent as described by the manufacturer. Luminescence was detected on a BioTek Synergy 2 microplate reader, and the values normalized to those of vehicle (DMSO)-treated controls before being plotted using GraphPad Prism.

[2] = tested on: phospho-ERK1/2 (p-ERK1/2) in U-937 AML cells; assay: p-ERK1/2 immunoblot, U-937; format: cell-based; details: SBI-4668 1, 3, 10, 30 μM, RMC-4550 1 μM
Source text: Oncogenic gain-of-function mutations in SHP2 drive leukemogenesis in a significant number of leukemia patients. However, because of their unique mechanism of action, the existing SHP2 allosteric inhibitors lack activity against the most common SHP2 oncogenic variants. Thus, we tested whether our inhibitors could inhibit the growth of leukemia cells expressing oncogenic SHP2 variants. […] Thus, we tested both SBI-4668 and RMC-4550 on U-937 AML cells, which harbor a G60R oncogenic mutation in SHP2. We treated cells with either SBI-4668 or RMC-4550 at various concentrations, ranging from 0.123 to 30 μM (Fig. 5A). […] We also assessed the effects of SBI-4668 and RMC-4550 on ERK1/2 activation in the SHP2 mutant U-937 cell line. Similar to the immunoblot experiments described for MOLM-13 cells above, U-937 AML cells were treated with either vehicle control (DMSO), SBI-4668 (1, 3, 10, or 30 μM), or with RMC-4550 (1 μM) for 24 h and processed for p-ERK1/2 immunoblot analysis (Fig. 5B).
Cells cultured in RPMI medium were treated as indicated in the legends to the figures. […] Densitometric quantitation of immunoblots was performed using Image Studio Lite Software (LI-COR). Changes of phosphorylated ERK1/2 to total ERK1/2 ratios are expressed as percentage of the vehicle-treated controls. […]

`O=C(Nc1ccccc1)c1cc(-c2ccc(/C=C3\Sc4ccccc4C3=O)o2)ccc1O` [SBI-4668, (Z)-2-Hydroxy-5-(5-((3-oxobenzo[b]thiophen-2(3H)-ylidene)methyl)furan-2-yl)-N-phenylbenzamide] was tested, and the IC50 [1] was 2.5 µM and the “p-ERK1/2 levels, U-937, 24 h” value [2] was “dose-dependently inhibited ERK1/2 activation”.
